# According to patent US20250171437A1 (Agios Pharmaceuticals,Inc., priority 2022, published 2025):
# Molecular target: T1, human PAH with the R408W mutation (A375 R408W cells) (Homo sapiens, UniProt P00439, R408W)
# T1 construct: expressed in transfected cells
# T1 sequence (P00439 1-452 R408W): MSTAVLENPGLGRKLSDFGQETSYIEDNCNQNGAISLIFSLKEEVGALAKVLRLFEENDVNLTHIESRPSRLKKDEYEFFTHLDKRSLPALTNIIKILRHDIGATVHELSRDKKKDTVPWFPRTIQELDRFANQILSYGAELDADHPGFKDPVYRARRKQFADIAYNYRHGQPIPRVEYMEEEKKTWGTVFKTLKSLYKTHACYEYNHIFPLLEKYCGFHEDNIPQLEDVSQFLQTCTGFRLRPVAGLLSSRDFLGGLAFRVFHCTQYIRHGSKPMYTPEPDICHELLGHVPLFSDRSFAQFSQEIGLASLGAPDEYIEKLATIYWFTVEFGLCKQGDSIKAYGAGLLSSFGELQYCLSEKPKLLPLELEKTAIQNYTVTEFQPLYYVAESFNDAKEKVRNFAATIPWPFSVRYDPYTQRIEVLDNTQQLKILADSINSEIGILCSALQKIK
# Experiment: Cell Based Phenylalanine Flux Assay
# Details: A375 R408W cells; 24 hrs with compound, then 20 μM sepiapterin and 800 μM 13C9,15N-Phenylalanine for 4 hours; 13C-Tyrosine by LC-MS; average where tested multiple times
# How it was run: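 LC-MS quantitation of 13C-tyrosine in media gave AC50 values. Stable A375 R408W PAH cells were preincubated 24 h with compound, then fed 800 μM labelled Phe plus 20 μM sepiapterin for 4 h. Dose curves were 10-point, tested in duplicate, averaged over repeat runs.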
row,AC50,Compound
1,1 to 5 µM,"CC(C)(O)c1nc(Cl)c(C(=O)N2CCc3[nH]cnc3[C@@H]2c2nc3cccc(F)c3o2)o1 [Example 271, (R)-(4-chloro-2-(2-hydroxypropan-2-yl)oxazol-5-yl)(4-(7-fluorobenzo[d]oxazol-2-yl)-6,7-dihydro-1H-imidazo[4,5-c]pyridin-5(4H)-yl)methanone]"
2,≤ 0.5 µM,"CC(C)(O)c1nc(Cl)c(C(=O)N2CCc3[nH]cnc3[C@H]2c2nc3cccc(F)c3o2)o1 [Example 272, (S)-(4-chloro-2-(2-hydroxypropan-2-yl)oxazol-5-yl)(4-(7-fluorobenzo[d]oxazol-2-yl)-6,7-dihydro-1H-imidazo[4,5-c]pyridin-5(4H)-yl)methanone]"
3,1 to 5 µM,"CC(C)(O)c1nc(Cl)c(C(=O)N2CCc3[nH]cnc3[C@@H]2c2nc3c(F)cccc3o2)o1 [Example 273, (R)-(4-chloro-2-(2-hydroxypropan-2-yl)oxazol-5-yl)(4-(4-fluorobenzo[d]oxazol-2-yl)-6,7-dihydro-1H-imidazo[4,5-c]pyridin-5(4H)-yl)methanone]"
4,0.5 to 1 µM,"CC(C)(O)c1nc(Cl)c(C(=O)N2CCc3[nH]cnc3[C@H]2c2nc3c(F)cccc3o2)o1 [Example 274, (S)-(4-chloro-2-(2-hydroxypropan-2-yl)oxazol-5-yl)(4-(4-fluorobenzo[d]oxazol-2-yl)-6,7-dihydro-1H-imidazo[4,5-c]pyridin-5(4H)-yl)methanone]"
5,0.5 to 1 µM,"COCc1ccc2c(C(=O)N3CCc4[nH]cnc4[C@H]3c3nc4c(F)cccc4o3)cnn2c1 [Example 275, (S)-(4-(4-fluorobenzo[d]oxazol-2-yl)-6,7-dihydro-1H-imidazo[4,5-c]pyridin-5(4H)-yl)(6-(methoxymethyl)pyrazolo[1,5-a]pyridin-3-yl)methanone]"
6,≥ 5 µM,"COCc1ccc2c(C(=O)N3CCc4[nH]cnc4[C@@H]3c3nc4c(F)cccc4o3)cnn2c1 [Example 276, (R)-(4-(4-fluorobenzo[d]oxazol-2-yl)-6,7-dihydro-1H-imidazo[4,5-c]pyridin-5(4H)-yl)(6-(methoxymethyl)pyrazolo[1,5-a]pyridin-3-yl)methanone]"
7,0.5 to 1 µM,"Cn1nc(Cl)nc1C(=O)N1CCc2[nH]cnc2[C@H]1c1nc2c(F)cccc2o1 [Example 277, (S)-(3-chloro-1-methyl-1H-1,2,4-triazol-5-yl)(4-(4-fluorobenzo[d]oxazol-2-yl)-6,7-dihydro-1H-imidazo[4,5-c]pyridin-5(4H)-yl)methanone]"
8,1 to 5 µM,"Cn1nc(Cl)nc1C(=O)N1CCc2[nH]cnc2[C@@H]1c1nc2c(F)cccc2o1 [Example 278, (R)-(3-chloro-1-methyl-1H-1,2,4-triazol-5-yl)(4-(4-fluorobenzo[d]oxazol-2-yl)-6,7-dihydro-1H-imidazo[4,5-c]pyridin-5(4H)-yl)methanone]"
9,0.5 to 1 µM,"Cn1nc(C(F)(F)F)nc1C(=O)N1CCc2[nH]cnc2[C@H]1c1nc2cccc(F)c2o1 [Example 279, (S)-(4-(7-fluorobenzo[d]oxazol-2-yl)-6,7-dihydro-1H-imidazo[4,5-c]pyridin-5(4H)-yl)(1-methyl-3-(trifluoromethyl)-1H-1,2,4-triazol-5-yl)methanone]"
10,1 to 5 µM,"Cn1nc(C(F)(F)F)nc1C(=O)N1CCc2[nH]cnc2[C@@H]1c1nc2cccc(F)c2o1 [Example 280, (R)-(4-(7-fluorobenzo[d]oxazol-2-yl)-6,7-dihydro-1H-imidazo[4,5-c]pyridin-5(4H)-yl)(1-methyl-3-(trifluoromethyl)-1H-1,2,4-triazol-5-yl)methanone]"
11,0.5 to 1 µM,"O=C(c1cnco1)N1CCc2[nH]cnc2[C@H]1c1nc2cccc(F)c2o1 [Example 281, (S)-(4-(7-fluorobenzo[d]oxazol-2-yl)-6,7-dihydro-1H-imidazo[4,5-c]pyridin-5(4H)-yl)(oxazol-5-yl)methanone]"
12,1 to 5 µM,"O=C(c1cnco1)N1CCc2[nH]cnc2[C@@H]1c1nc2cccc(F)c2o1 [Example 282, (R)-(4-(7-fluorobenzo[d]oxazol-2-yl)-6,7-dihydro-1H-imidazo[4,5-c]pyridin-5(4H)-yl)(oxazol-5-yl)methanone]"
13,≤ 0.5 µM,"Cn1nc(Cl)nc1C(=O)N1CCc2[nH]cnc2[C@H]1c1nc2cccc(F)c2o1 [Example 283, (S)-(3-chloro-1-methyl-1H-1,2,4-triazol-5-yl)(4-(7-fluorobenzo[d]oxazol-2-yl)-6,7-dihydro-1H-imidazo[4,5-c]pyridin-5(4H)-yl)methanone]"
14,1 to 5 µM,"Cn1nc(Cl)nc1C(=O)N1CCc2[nH]cnc2[C@@H]1c1nc2cccc(F)c2o1 [Example 284, (R)-(3-chloro-1-methyl-1H-1,2,4-triazol-5-yl)(4-(7-fluorobenzo[d]oxazol-2-yl)-6,7-dihydro-1H-imidazo[4,5-c]pyridin-5(4H)-yl)methanone]"
15,0.5 to 1 µM,"Cn1nc(C(F)F)nc1C(=O)N1CCc2[nH]cnc2[C@H]1c1nc2cccc(F)c2o1 [Example 285, (S)-(3-(difluoromethyl)-1-methyl-1H-1,2,4-triazol-5-yl)(4-(7-fluorobenzo[d]oxazol-2-yl)-6,7-dihydro-1H-imidazo[4,5-c]pyridin-5(4H)-yl)methanone]"
16,1 to 5 µM,"Cn1nc(C(F)F)nc1C(=O)N1CCc2[nH]cnc2[C@@H]1c1nc2cccc(F)c2o1 [Example 286, (R)-(3-(difluoromethyl)-1-methyl-1H-1,2,4-triazol-5-yl)(4-(7-fluorobenzo[d]oxazol-2-yl)-6,7-dihydro-1H-imidazo[4,5-c]pyridin-5(4H)-yl)methanone]"
17,0.5 to 1 µM,"O=C(c1ccnn1C(F)(F)F)N1CCc2[nH]cnc2[C@H]1c1nc2ccc(F)cc2o1 [Example 287, (S)-(4-(6-fluorobenzo[d]oxazol-2-yl)-6,7-dihydro-1H-imidazo[4,5-c]pyridin-5(4H)-yl)(1-(trifluoromethyl)-1H-pyrazol-5-yl)methanone]"
18,1 to 5 µM,"O=C(c1ccnn1C(F)(F)F)N1CCc2[nH]cnc2[C@@H]1c1nc2ccc(F)cc2o1 [Example 288, (R)-(4-(6-fluorobenzo[d]oxazol-2-yl)-6,7-dihydro-1H-imidazo[4,5-c]pyridin-5(4H)-yl)(1-(trifluoromethyl)-1H-pyrazol-5-yl)methanone]"
19,0.5 to 1 µM,"O=C(c1ccnn1C(F)(F)F)N1CCc2[nH]cnc2[C@H]1c1nc2cccc(F)c2o1 [Example 289, (S)-(4-(7-fluorobenzo[d]oxazol-2-yl)-6,7-dihydro-1H-imidazo[4,5-c]pyridin-5(4H)-yl)(1-(trifluoromethyl)-1H-pyrazol-5-yl)methanone]"
20,1 to 5 µM,"O=C(c1ccnn1C(F)(F)F)N1CCc2[nH]cnc2[C@@H]1c1nc2cccc(F)c2o1 [Example 290, (R)-(4-(7-fluorobenzo[d]oxazol-2-yl)-6,7-dihydro-1H-imidazo[4,5-c]pyridin-5(4H)-yl)(1-(trifluoromethyl)-1H-pyrazol-5-yl)methanone]"
21,≤ 0.5 µM,"CN(C)C(C)(C)c1nc(C(F)F)c(C(=O)N2CCc3[nH]cnc3[C@H]2c2nc3cc(F)ccc3o2)o1 [Example 291, (S)-(4-(difluoromethyl)-2-(2-(dimethylamino)propan-2-yl)oxazol-5-yl)(4-(5-fluorobenzo[d]oxazol-2-yl)-6,7-dihydro-1H-imidazo[4,5-c]pyridin-5(4H)-yl)methanone]"
22,≤ 0.5 µM,"CN(C)C(C)(C)c1nc(C(F)F)c(C(=O)N2CCc3[nH]cnc3[C@@H]2c2nc3cc(F)ccc3o2)o1 [Example 292, (R)-(4-(difluoromethyl)-2-(2-(dimethylamino)propan-2-yl)oxazol-5-yl)(4-(5-fluorobenzo[d]oxazol-2-yl)-6,7-dihydro-1H-imidazo[4,5-c]pyridin-5(4H)-yl)methanone]"
23,≤ 0.5 µM,"O=C(c1ccnn1C(F)(F)F)N1CCc2[nH]cnc2[C@H]1c1nc2c(F)cccc2o1 [Example 293, (S)-(4-(4-fluorobenzo[d]oxazol-2-yl)-6,7-dihydro-1H-imidazo[4,5-c]pyridin-5(4H)-yl)(1-(trifluoromethyl)-1H-pyrazol-5-yl)methanone]"
24,1 to 5 µM,"O=C(c1ccnn1C(F)(F)F)N1CCc2[nH]cnc2[C@@H]1c1nc2c(F)cccc2o1 [Example 294, (R)-(4-(4-fluorobenzo[d]oxazol-2-yl)-6,7-dihydro-1H-imidazo[4,5-c]pyridin-5(4H)-yl)(1-(trifluoromethyl)-1H-pyrazol-5-yl)methanone]"
25,0.5 to 1 µM,"O=C(c1ocnc1C(F)F)N1CCc2[nH]cnc2[C@H]1c1nc2cc(F)c(F)cc2o1 [Example 295, (S)-(4-(5,6-difluorobenzo[d]oxazol-2-yl)-6,7-dihydro-1H-imidazo[4,5-c]pyridin-5(4H)-yl)(4-(difluoromethyl)oxazol-5-yl)methanone]"
26,1 to 5 µM,"O=C(c1ocnc1C(F)F)N1CCc2[nH]cnc2[C@@H]1c1nc2cc(F)c(F)cc2o1 [Example 296, (R)-(4-(5,6-difluorobenzo[d]oxazol-2-yl)-6,7-dihydro-1H-imidazo[4,5-c]pyridin-5(4H)-yl)(4-(difluoromethyl)oxazol-5-yl)methanone]"
27,≤ 0.5 µM,"CC(C)(O)c1nc(C(F)F)c(C(=O)N2CCc3[nH]cnc3[C@H]2c2nc3ccc(F)c(F)c3o2)o1 [Example 297, (S)-(4-(6,7-difluorobenzo[d]oxazol-2-yl)-6,7-dihydro-1H-imidazo[4,5-c]pyridin-5(4H)-yl)(4-(difluoromethyl)-2-(2-hydroxypropan-2-yl)oxazol-5-yl)methanone]"
